Experimental data as given in ChEMBL document CHEMBL1131884, “Dicationic 2-fluorenonylcarbapenems: potent anti-MRS agents with improved solubility and pharmacokinetic properties” (Bioorg Med Chem Lett, 1999).
Converted amounts (≈) assume the structure as drawn.

Legend:
Bacteria = test: Antibacterial activity against Gram negative bacteria; assay type: functional
Mus musculus [1] = test: In vivo antibacterial activity against MSSA MB 2985 strain at the dose ~4 *10e7 cfu in brain heart broth along with antibiotic by sc administration at 0 hour in mice; assay type: functional
[2] = Glomerular Filtration Rate(GFR) evaluated in Rhesus monkeys at the dose of 10 mg/kg by iv bolus injection; assay type: ADME, organism-based; set-up: dose 10 mg/kg, route intravenous; settings: cercopithecidae, in vivo
Mus musculus [3] = test: In vivo antibacterial activity against MSSA MB 2985 strain at the dose ~4 *10e7 cfu in brain heart broth along with antibiotic by administration at 0 hour in mice; assay type: functional
Staphylococcus aureus [4] = test: Antibacterial activity against MSSA (Methicillin-sensitive Staphylococcus aureus); assay type: functional
Staphylococcus sp. = test: Antibacterial activity against methicillin-resistant coagulase negative Staphylococci (MRCNS); assay type: functional
Enterococcus faecium = test: Antibacterial activity against vancomycin-resistant Enterococcal faecium strain; assay type: functional
[5] = Renal clearance evaluated in Rhesus monkeys at the dose of 10 mg/kg by iv bolus injection; assay type: ADME, organism-based, Kidney; set-up: dose 10 mg/kg, route intravenous; settings: cercopithecidae, in vivo, read-out: Renal clearance
Streptococcus pneumoniae = test: Antibacterial activity against penicillin-resistant Streptococcus pneumoniae; assay type: functional
Enterococcus faecalis [6] = test: Antibacterial activity against vancomycin-resistant Enterococcus faecalis strain; assay type: functional
Staphylococcus aureus [7] = test: Antibacterial activity against methicillin-resistant Staphylococcus aureus (MRSA); assay type: functional
Streptococcus pyogenes [8] = test: Antibacterial activity against Streptococcus pyogenes; assay type: functional
Enterococcus faecalis [9] = test: Antibacterial activity against Enterococcus faecalis; assay type: functional
MecA = target: T1, MecA (Staphylococcus aureus, UniProt Q7DHH4); test: Binding affinity against PBP2a receptor by competition analysis with [3H]benzylpenicillin using cell membrane fractions from the MRSA COL strain.
T1 sequence (Q7DHH4 whole entry): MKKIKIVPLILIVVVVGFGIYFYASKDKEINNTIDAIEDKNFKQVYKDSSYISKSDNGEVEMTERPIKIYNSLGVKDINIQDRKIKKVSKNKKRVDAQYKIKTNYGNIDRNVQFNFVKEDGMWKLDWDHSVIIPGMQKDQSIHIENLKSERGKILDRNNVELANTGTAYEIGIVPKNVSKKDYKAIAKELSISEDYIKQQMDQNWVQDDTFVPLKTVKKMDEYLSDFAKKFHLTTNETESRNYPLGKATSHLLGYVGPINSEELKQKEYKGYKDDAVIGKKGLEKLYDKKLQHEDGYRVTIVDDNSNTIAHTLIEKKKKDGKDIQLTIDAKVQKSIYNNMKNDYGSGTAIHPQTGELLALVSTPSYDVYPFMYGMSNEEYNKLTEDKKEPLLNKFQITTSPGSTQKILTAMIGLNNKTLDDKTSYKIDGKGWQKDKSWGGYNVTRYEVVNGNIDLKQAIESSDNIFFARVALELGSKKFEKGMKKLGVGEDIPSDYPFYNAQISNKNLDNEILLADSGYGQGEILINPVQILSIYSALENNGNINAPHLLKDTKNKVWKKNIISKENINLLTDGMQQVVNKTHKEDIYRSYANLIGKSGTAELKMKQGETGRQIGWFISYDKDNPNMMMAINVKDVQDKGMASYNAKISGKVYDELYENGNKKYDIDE

[10] = Plasma clearance evaluated in Rhesus monkeys at the dose of 10 mg/kg by iv bolus injection; assay type: ADME, organism-based; set-up: dose 10 mg/kg, route intravenous; settings: cercopithecidae
Mus musculus [11] = test: In vivo antibacterial activity against MRSA 76 virginia strain at the dose ~1 *10e7 cfu in 5 percent hog gastric mucin along with antibiotic by sc administration at 0 and +4 hrs in mice; assay type: functional
[12] = AUC (area under curve) evaluated in Rhesus monkeys at the dose of 10 mg/kg by iv bolus injection; assay type: ADME, organism-based, Plasma; set-up: dose 10 mg/kg, route intravenous; settings: cercopithecidae
[13] = Half life evaluated in Rhesus monkeys at the dose of 10 mg/kg by iv bolus injection; assay type: ADME, organism-based; set-up: dose 10 mg/kg, route intravenous; settings: cercopithecidae, in vivo, read-out: Beta t1/2 (converted)
[14] = target: T2, Dipeptidase 1 (Sus scrofa) (UniProt P22412); test: Susceptibility to mammalian dehydropeptidas, DHP-1(Porcine)
T2 sequence (whole entry): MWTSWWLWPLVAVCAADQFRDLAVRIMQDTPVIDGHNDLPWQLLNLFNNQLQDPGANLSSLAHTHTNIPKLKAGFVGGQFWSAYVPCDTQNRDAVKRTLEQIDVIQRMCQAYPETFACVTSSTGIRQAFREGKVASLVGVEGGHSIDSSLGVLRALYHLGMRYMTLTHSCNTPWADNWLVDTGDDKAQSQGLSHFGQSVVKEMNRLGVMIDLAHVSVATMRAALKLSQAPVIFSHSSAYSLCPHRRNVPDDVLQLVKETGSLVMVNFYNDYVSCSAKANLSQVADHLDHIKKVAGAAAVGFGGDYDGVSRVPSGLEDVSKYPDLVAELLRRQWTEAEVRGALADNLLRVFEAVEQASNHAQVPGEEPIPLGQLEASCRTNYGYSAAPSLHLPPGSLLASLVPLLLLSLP

Streptococcus pyogenes [15] = test: Antibacterial activity against Streptococcus pyogenes
[16] = target: T2, Dipeptidase 1 (Sus scrofa); test: Susceptibility to mammalian dehydropeptidase, DHP-1(Porcine)
[17] = Glomerular Filtration Rate(GFR)of the compound compared to Cilastatin evaluated in Rhesus monkeys at the dose of 10 mg/kg by iv bolus injection; assay type: ADME, organism-based; set-up: dose 10 mg/kg, route intravenous; settings: cercopithecidae, in vivo
[18] = Renal clearance compared to Cilastatin evaluated in Rhesus monkeys at the dose of 10 mg/kg by iv bolus injection; assay type: ADME, organism-based, Kidney; set-up: dose 10 mg/kg, route intravenous; settings: cercopithecidae, in vivo, read-out: Renal clearance
[19] = Half life compared to Cilastatin evaluated in Rhesus monkeys at the dose of 10 mg/kg by iv bolus injection; assay type: ADME, organism-based; set-up: dose 10 mg/kg, route intravenous; settings: cercopithecidae, in vivo, read-out: Beta t1/2 (converted)
[20] = Plasma clearance compared to Cilastatin evaluated in Rhesus monkeys at the dose of 10 mg/kg by iv bolus injection; assay type: ADME, organism-based; set-up: dose 10 mg/kg, route intravenous; settings: cercopithecidae
[21] = Urinary recovery compared to Cilastatin evaluated in Rhesus monkeys at the dose of 10 mg/kg by iv bolus injection; assay type: ADME, organism-based, Urine; set-up: dose 10 mg/kg, route intravenous; settings: cercopithecidae, in vivo
[22] = AUC (area under curve) compared to Cilastatin evaluated in Rhesus monkeys at the dose of 10 mg/kg by iv bolus injection; assay type: ADME, organism-based; set-up: dose 10 mg/kg, route intravenous; settings: cercopithecidae, plasma

Row | SMILES | MIC (Bacteria) [µg/mL] | ED50 (Mus musculus [1]) [mg/kg] | MIC (Mus musculus [3]) [µg/mL] | MIC (Staphylococcus aureus [4]) [µg/mL] | MIC50 (Staphylococcus sp.) [µg/mL] | MIC90 (Staphylococcus sp.) [µg/mL] | MIC (Enterococcus faecium) [µg/mL] | MIC (Streptococcus pneumoniae) [µg/mL] | MIC (Enterococcus faecalis [6]) [µg/mL] | MIC50 (Staphylococcus aureus [7]) [µg/mL] | MIC90 (Staphylococcus aureus [7]) [µg/mL] | MIC (Streptococcus pyogenes [8]) [µg/mL] | MIC (Enterococcus faecalis [9]) [µg/mL] | IC50 (MecA) [nM] | ED50 (Mus musculus [11]) [mg kg-1 dose-1] | MIC (Mus musculus [11]) [µg/mL] | further results
1 | C[C@@H](O)[C@H]1C(=O)N2C(C(=O)[O-])=C(c3ccc4c(c3)-c3ccc(C[N+]56CC[N+](CC(N)=O)(CC5)CC6)cc3C4=O)[C@H](C)[C@H]12.[Cl-] | 3.6 | 0.021 | 0.031 | 0.03 | 4 | 8 | 8 | 0.24 | 8 | 4 | 4 | < 0.031 | 0.5 | 1320 | 1 | 2 | GFR [2]: 3.48 mL/min/kg; CL renal [5]: 2.72 mL/min/kg; clearance [10]: 2.95 mL/min/kg; AUC ([12]; plasma, read-out: AUC): 56400 ng·h/mL; half-life [13]: 81 min; Rate of hydrolysis [14]: 0.021
2 | C[C@@H](O)[C@H]1C(=O)N2C(C(=O)[O-])=C(c3ccc4c(c3)-c3ccc(C[N+]56CC[N+](CC(N)=O)(CC5)CC6)cc3C4=O)C[C@H]12.[Cl-] | 1.05 | 0.042 | 0.004 | 0.03 | 2 | 2 | 16 | 0.09 | 2 | 1 | 4 |  | 0.125 | 573 | 0.5 | 1 | MIC (Streptococcus pyogenes [15]): < 0.031 µg/mL; GFR [2]: 2.96 mL/min/kg; Rate of hydrolysis [16]: 0.055; CL renal [5]: 1.88 mL/min/kg; clearance [10]: 4.74 mL/min/kg; AUC ([12]; in vivo): 35.14 µg/mL; half-life [13]: 54.6 min
3 | C[C@@H](O)[C@H]1C(=O)N2C(C(=O)O)=C(SCCNC=N)C[C@H]12 [IMIPENEM ANHYDROUS] | 0.45 (≈ 1.5 µM) | 0.021 | 0.008 (≈ 0.0267 µM) | 0.03 (≈ 0.1 µM) | 128 (≈ 428 µM) | 256 (≈ 855 µM) | > 64 | 0.35 (≈ 1.17 µM) | 8 (≈ 26.7 µM) | 64 (≈ 214 µM) | 128 (≈ 428 µM) | < 0.031 | 2 (≈ 6.68 µM) |  | 15.7 | 64 (≈ 214 µM) | Rate of hydrolysis [14]: 1
4 | C[C@@H](O)[C@H]1C(=O)N2C(C(=O)O)=C(SCCN=CN)C[C@H]12 [IMIPENEM ANHYDROUS] |  |  |  |  |  |  |  |  |  |  |  |  |  | 334000 |  |  | GFR [17]: 2.98 mL/min/kg; CL renal [18]: 5.44 mL/min/kg; half-life [19]: 36 min; clearance [20]: 6.72 mL/min/kg; Urinary recovery [21]: 82; AUC [22]: 24800 ng·h/mL
5 | C[C@@H](O)[C@H]1C(=O)N2C(C(=O)O)=C(c3ccc4c(c3)-c3ccc(C[N+]56CC[N+](CC(=O)Nc7ccc(CO)cc7)(CC5)CC6)cc3C4=O)[C@H](C)[C@H]12.[Cl-].[Cl-] |  |  |  |  | 1 | 4 |  |  |  | 1 | 2 |  |  | 2670 |  |  | 
6 | COc1cccc(NC(=O)C[N+]23CC[N+](Cc4ccc5c(c4)C(=O)c4ccc(C6=C(C(=O)O)N7C(=O)[C@H]([C@@H](C)O)[C@H]7[C@H]6C)cc4-5)(CC2)CC3)c1.[Cl-].[Cl-] |  |  |  |  | 1 | 4 |  |  |  | 1 | 1 |  |  | 2430 |  |  | 
7 | CN[C@H](CC(C)C)C(=O)N[C@H]1C(=O)N[C@@H](CC(N)=O)C(=O)N[C@H]2C(=O)N[C@H]3C(=O)N[C@H](C(=O)N[C@H](C(=O)O)c4cc(O)cc(O)c4-c4cc3ccc4O)[C@H](O)c3ccc(c(Cl)c3)Oc3cc2cc(c3O[C@@H]2O[C@H](CO)[C@@H](O)[C@H](O)[C@H]2O[C@H]2C[C@](C)(N)[C@H](O)[C@H](C)O2)Oc2ccc(cc2Cl)[C@H]1O [VANCOMYCIN] | > 64 | 3.7 | 1 (≈ 0.69 µM) |  | 4 (≈ 2.76 µM) | 4 (≈ 2.76 µM) | > 64 | 0.25 (≈ 0.173 µM) | 32 (≈ 22.1 µM) | 1 (≈ 0.69 µM) | 2 (≈ 1.38 µM) | 0.25 (≈ 0.173 µM) |  |  | 2.33 | 1 (≈ 0.69 µM) | 
